Type in all cases: biochemical
Common to all, as to details: ADP-Glo SIK kinase assay
A general note: ADP-Glo turns the ADP formed in a reaction into a luminescent signal.

One assay has as its target T1, SIK1 (Homo sapiens, UniProt P57059).
T1 construct: purchased Carna Biosciences 02-131
The experiment in a line: ADP-Glo kinase assay, SIK1. Put shortly: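 Enzyme–substrate mix was started with ATP and incubated 120 min at RT. ADP formed was quantified by ADP-Glo: 40 min ATP depletion, then 30 min detection reagent converting ADP to ATP for luciferase luminescence, which rises with kinase activity. Controls: 1% DMSO and 10 μM staurosporine (final).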

Another assay deals with T2, SIK2 (Homo sapiens, UniProt Q9H0K1).
T2 construct: purchased ThermoFisher Scientific PV4792
T2 sequence (Q9H0K1 whole entry): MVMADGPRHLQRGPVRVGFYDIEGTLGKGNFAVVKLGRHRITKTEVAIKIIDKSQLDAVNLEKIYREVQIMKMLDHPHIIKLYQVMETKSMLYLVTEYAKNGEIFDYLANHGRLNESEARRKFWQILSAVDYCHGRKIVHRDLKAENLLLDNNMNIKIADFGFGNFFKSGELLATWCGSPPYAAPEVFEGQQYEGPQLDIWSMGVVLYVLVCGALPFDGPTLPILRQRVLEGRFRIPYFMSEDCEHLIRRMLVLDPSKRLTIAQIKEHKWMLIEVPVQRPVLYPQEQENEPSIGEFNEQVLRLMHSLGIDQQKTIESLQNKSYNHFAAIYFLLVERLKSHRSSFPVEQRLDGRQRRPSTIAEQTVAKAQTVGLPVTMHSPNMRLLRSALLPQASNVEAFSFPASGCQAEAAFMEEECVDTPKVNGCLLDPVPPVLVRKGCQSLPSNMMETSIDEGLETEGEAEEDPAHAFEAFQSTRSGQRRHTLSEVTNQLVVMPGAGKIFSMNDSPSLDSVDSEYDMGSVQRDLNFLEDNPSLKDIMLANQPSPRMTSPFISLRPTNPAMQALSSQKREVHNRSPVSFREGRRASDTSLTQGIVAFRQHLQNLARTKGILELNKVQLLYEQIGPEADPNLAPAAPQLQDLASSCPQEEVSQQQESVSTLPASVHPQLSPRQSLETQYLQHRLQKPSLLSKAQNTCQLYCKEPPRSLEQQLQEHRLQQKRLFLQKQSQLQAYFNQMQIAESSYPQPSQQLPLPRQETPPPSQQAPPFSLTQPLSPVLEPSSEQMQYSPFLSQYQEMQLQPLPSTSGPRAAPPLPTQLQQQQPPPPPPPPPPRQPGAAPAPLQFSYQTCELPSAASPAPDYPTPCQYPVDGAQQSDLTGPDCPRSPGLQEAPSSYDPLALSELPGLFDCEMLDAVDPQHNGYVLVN
The experiment in a line: ADP-Glo kinase assay, SIK2. The procedure, abridged:
(§1)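 Kinase reactions (enzyme-substrate mix plus ATP) ran 120 min at room temperature for each of SIK3 and SIK2. Signal came from ADP-Glo: unconsumed ATP removed (40 min), ADP reconverted and detected by luciferase/luciferin (30 min), with luminescence tracking kinase activity. 10 μM staurosporine and 1% DMSO (final) served as controls.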

A further assay deals with T3, SIK3 (Homo sapiens, UniProt Q9Y2K2).
T3 construct: purchased SignalChem S12-11G-100
T3 sequence (Q9Y2K2 whole entry): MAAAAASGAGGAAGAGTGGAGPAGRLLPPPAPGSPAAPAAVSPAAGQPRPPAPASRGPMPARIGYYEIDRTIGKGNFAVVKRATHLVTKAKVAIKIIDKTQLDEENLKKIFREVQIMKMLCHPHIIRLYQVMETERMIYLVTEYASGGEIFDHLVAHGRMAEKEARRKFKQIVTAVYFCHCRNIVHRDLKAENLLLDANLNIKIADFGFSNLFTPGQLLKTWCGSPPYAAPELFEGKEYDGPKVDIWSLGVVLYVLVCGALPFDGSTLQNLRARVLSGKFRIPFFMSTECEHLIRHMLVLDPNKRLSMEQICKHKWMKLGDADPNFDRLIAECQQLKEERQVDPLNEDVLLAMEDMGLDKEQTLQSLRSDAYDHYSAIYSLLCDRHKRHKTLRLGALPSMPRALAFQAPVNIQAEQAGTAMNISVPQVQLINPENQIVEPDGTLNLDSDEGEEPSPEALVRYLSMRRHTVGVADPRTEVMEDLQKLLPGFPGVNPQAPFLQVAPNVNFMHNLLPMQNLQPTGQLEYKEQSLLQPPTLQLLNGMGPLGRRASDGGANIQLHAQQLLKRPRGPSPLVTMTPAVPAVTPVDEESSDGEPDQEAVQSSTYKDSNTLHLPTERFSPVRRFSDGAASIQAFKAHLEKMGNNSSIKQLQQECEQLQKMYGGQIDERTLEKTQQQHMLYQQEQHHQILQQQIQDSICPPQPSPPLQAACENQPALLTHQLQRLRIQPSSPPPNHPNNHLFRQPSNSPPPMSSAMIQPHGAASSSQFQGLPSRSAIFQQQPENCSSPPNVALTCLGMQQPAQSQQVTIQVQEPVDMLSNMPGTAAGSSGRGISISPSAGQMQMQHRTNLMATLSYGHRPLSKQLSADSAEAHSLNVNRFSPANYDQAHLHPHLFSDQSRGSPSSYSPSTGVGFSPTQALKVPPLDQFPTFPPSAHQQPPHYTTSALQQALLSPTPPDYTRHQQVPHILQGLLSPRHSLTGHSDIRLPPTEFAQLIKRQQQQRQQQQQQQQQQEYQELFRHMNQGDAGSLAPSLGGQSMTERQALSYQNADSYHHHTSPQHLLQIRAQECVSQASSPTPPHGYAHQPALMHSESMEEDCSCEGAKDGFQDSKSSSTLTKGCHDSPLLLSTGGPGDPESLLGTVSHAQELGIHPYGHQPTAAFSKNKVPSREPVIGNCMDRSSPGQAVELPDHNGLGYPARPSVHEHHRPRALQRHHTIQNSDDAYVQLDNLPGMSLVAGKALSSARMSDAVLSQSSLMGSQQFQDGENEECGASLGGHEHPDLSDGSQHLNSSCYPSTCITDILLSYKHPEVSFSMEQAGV
The experiment in a line: ADP-Glo kinase assay, SIK3. The procedure, abridged:
as §1

Each structure is given as a SMILES string.

T1 sequence (P57059 whole entry): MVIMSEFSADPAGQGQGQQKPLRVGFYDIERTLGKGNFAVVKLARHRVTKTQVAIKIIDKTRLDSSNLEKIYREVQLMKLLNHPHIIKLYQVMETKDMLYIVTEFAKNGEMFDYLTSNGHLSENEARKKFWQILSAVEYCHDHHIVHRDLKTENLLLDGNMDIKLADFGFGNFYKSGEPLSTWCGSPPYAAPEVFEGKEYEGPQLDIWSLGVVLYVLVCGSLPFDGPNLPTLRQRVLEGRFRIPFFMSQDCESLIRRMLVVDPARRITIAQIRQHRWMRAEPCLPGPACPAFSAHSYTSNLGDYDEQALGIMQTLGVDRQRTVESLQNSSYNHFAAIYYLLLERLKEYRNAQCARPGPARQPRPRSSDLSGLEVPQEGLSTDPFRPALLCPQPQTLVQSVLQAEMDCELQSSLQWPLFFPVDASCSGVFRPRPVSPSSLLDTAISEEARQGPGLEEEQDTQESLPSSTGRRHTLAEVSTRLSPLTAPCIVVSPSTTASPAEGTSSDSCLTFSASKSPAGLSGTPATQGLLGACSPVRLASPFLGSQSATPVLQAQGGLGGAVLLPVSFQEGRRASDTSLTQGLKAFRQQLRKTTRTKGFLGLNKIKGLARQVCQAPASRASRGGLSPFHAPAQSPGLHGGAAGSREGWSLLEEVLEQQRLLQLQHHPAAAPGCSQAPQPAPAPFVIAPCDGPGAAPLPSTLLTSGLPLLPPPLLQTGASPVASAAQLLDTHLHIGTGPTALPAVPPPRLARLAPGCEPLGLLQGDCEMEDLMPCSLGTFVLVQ

What is called IC50 is the concentration that inhibits the measured activity by half. Turning to `COc1cc(-c2cnc3cc(OCC4(F)CNC4)ccn23)cc2c1C(=O)N(CC(F)(F)F)CC2` [compound 250, 6-[7-[(3-fluoroazetidin-3-yl)methoxy]imidazo[1,2-a]pyridin-3-yl]-8-methoxy-2-(2,2,2-trifluoroethyl)-3,4-dihydro isoquinolin-1-one], the IC50 on SIK1 fell in the range of 100 to 500 nM; against SIK2, 0.01 to 10 nM; against SIK3 it was 0.01 to 10 nM.

Regarding `CCn1ccnc1COc1ccn2c(-c3cc(OC)c(C(=O)NC4CC4)c(OC(F)F)c3)cnc2c1` [Cpd 173, N-cyclopropyl-2-(difluoromethoxy)-4-[7-[(1-ethylimidazol-2-yl)methoxy]imidazo[1,2-a]pyridin-3-yl]-6-methoxy-benzamide], the concentration for half-maximal inhibition (IC50) against SIK1 lay within 100 to 500 nM; against SIK2, 0.01 to 10 nM; against SIK3, 0.01 to 10 nM.

Turning to `COc1cc(-c2cnc3cc(OCCO)ccn23)cc(OC(F)F)c1C(=O)NC1CC1` [compound 30, N-cyclopropyl-2-(difluoromethoxy)-4-[7-(2-hydroxyethoxy)imidazo [1,2-a]pyridin-3-yl]-6-methoxy-benzamide], the IC50 at SIK1 was 10 to 100 nM; at SIK2, 0.01 to 10 nM; on SIK3, 0.01 to 10 nM.

Turning to `COc1cc(-c2cnc3cc(OCc4cscn4)ccn23)cc(OC(F)F)c1C(=O)NC1CC1` [compound 46, N-cyclopropyl-2-(difluoromethoxy)-6-methoxy-4-[7-(thiazol-4-ylmethoxy)imidazo[1,2-a]pyridin-3-yl]benzamide], the results for the IC50 against SIK1, against SIK2 and against SIK3 were 10 to 100 nM, 0.01 to 10 nM and 0.01 to 10 nM, respectively.

Consider `COc1cc(-c2cnc3cc(OCC4CCOCC4)ccn23)cc(OC(F)F)c1C(=O)NC1CC1` [compound 49, N-cyclopropyl-2-(difluoromethoxy)-6-methoxy-4-[7-(tetrahydropyran-4-ylmethoxy)imidazo[1,2-a]pyridin-3-yl] benzamide], for which the IC50 against SIK1, against SIK2 and at SIK3 was 0.01 to 10 nM in each case.

As for `COc1cc(-c2cnc3cc(OCc4nc(C)no4)ccn23)cc(OC(F)F)c1C(=O)NC1CC1` [compound 229, N-cyclopropyl-2-(difluoromethoxy)-6-methoxy-4-[7-[(3-methyl-1,2,4-oxadiazol-5-yl)methoxy]imidazo[1,2-a]pyridin-3-yl]benzamide], the IC50 at SIK1 was 10 to 100 nM; at SIK2, 0.01 to 10 nM; against SIK3, 0.01 to 10 nM.

On to `COc1cc(-c2cnc3cc(OCC4COCCO4)ccn23)cc(OC(F)F)c1C(=O)NC1CC1` (stereo not drawn) [compound 98, N-cyclopropyl-2-(difluoromethoxy)-4-[7-(1,4-dioxan-2-ylmethoxy)imidazo[1,2-a]pyridin-3-yl]-6-methoxy-benzamide], for which the IC50 on SIK1 lay in the range of 10 to 100 nM; at SIK2, 0.01 to 10 nM; against SIK3 it was 0.01 to 10 nM.

As to `COc1cc(-c2cnc3cc(OCCN4CCC(F)(F)CC4)ccn23)cc(OC(F)F)c1C(=O)NC1CC1` [Cpd 181, N-cyclopropyl-2-(difluoromethoxy)-4-[7-[2-(4,4-difluoro-1-piperidyl)ethoxy]imidazo [1,2-a]pyridin-3-yl]-6-methoxy-benzamide], the IC50 at SIK1 was 10 to 100 nM; against SIK2, 0.01 to 10 nM; on SIK3, 0.01 to 10 nM.

On to `CCOC(=O)CN1CCCCC1COc1ccn2c(-c3cc(OC)c(C(=O)NC4CC4)c(OC(F)F)c3)cnc2c1` (stereo not drawn) [Cpd 397, ethyl 2-[2-[[3-[4-(cyclopropylcarbamoyl)-3-(difluoromethoxy)-5-methoxy-phenyl]imidazo[1,2-a]pyridin-7-yl]oxymethyl]-1-piperidyl]acetate], for which the results for the IC50 against SIK1, against SIK2 and against SIK3 were 10 to 100 nM, 10 to 100 nM and 0.01 to 10 nM, respectively.

On to `COc1cc(-c2cnc3cc(OC[C@H]4CCN(C5COC5)C4)ccn23)cc(OC(F)F)c1C(=O)NC1CC1` [compound 317, N-cyclopropyl-2-(difluoromethoxy)-6-methoxy-4-[7-[[(3S)-1-(oxetan-3-yl)pyrrolidin-3-yl]methoxy]imidazo[1,2-a]pyridin-3-yl]benzamide], for which the IC50 at SIK1 lay within 10 to 100 nM; on SIK2, 0.01 to 10 nM; on SIK3, 0.01 to 10 nM.

On to `COc1cc(-c2cnc3cc(OCCO)ccn23)cc2c1C(=O)N(CC(F)(F)F)CC2` [Cpd 258, 6-[7-(2-hydroxyethoxy)imidazo [1,2-a]pyridin-3-yl]-8-methoxy-2-(2,2,2-trifluoroethyl)-3,4-dihydroisoquinolin-1-one], for which the IC50 on SIK1 was in the range of 100 to 500 nM; at SIK2, 10 to 100 nM; against SIK3, 0.01 to 10 nM.

With `COc1cc(-c2cnc3cc(OCCNc4ccncn4)ccn23)cc(OC(F)F)c1C(=O)NC1CC1` [compound 369, N-cyclopropyl-2-(difluoromethoxy)-6-methoxy-4-[7-[2-(pyrimidin-4-ylamino)ethoxy]imidazo [1,2-a]pyridin-3-yl]benzamide], the concentration for half-maximal inhibition (IC50) against SIK1, against SIK2 and against SIK3 was 0.01 to 10 nM each time.

As for `COc1cc(-c2cnc3cc(OCC4(N)CC4)ccn23)cc(OC(F)F)c1C(=O)NC1CC1` [compound 171, 4-[7-[(1-aminocyclopropyl)methoxy]imidazo[1,2-a]pyridin-3-yl]-N-cyclopropyl-2-(difluoromethoxy)-6-methoxy-benzamide], the results for the IC50 against SIK1, at SIK2 and at SIK3 were 10 to 100 nM, 0.01 to 10 nM and 0.01 to 10 nM, respectively.

Turning to `COc1cc(-c2cnc3cc(OCC4CCCCN4S(C)(=O)=O)ccn23)cc(OC(F)F)c1C(=O)NC1CC1` (stereo not drawn) [Cpd 129, N-cyclopropyl-2-(difluoromethoxy)-6-methoxy-4-[7-[(1-methylsulfonyl-2-piperidyl)methoxy]imidazo[1,2-a]pyridin-3-yl]benzamide], the IC50 at SIK1, on SIK2 and at SIK3 was 0.01 to 10 nM throughout.

With `COc1cc(-c2cnc3cc(OC4CCC4)ccn23)cc(OC(F)F)c1C(=O)NC1CC1` [compound 151, 4-[7-(cyclobutoxy)imidazo[1,2-a]pyridin-3-yl]-N-cyclopropyl-2-(difluoromethoxy)-6-methoxy-benzamide], the values for the IC50 at SIK1, against SIK2 and on SIK3 were 10 to 100 nM, 0.01 to 10 nM and 0.01 to 10 nM, respectively.

For the molecule `COc1cc(-c2cnc3cc(OCc4ccncc4)ccn23)cc(OC(F)F)c1C(=O)NC1CC1` [compound 103, N-cyclopropyl-2-(difluoromethoxy)-6-methoxy-4-[7-(4-pyridylmethoxy)imidazo [1,2-a]pyridin-3-yl]benzamide], the IC50 against SIK1 was in the range of 10 to 100 nM; against SIK2, 0.01 to 10 nM; against SIK3, 0.01 to 10 nM.

For the molecule `COc1cc(-c2cnc3cc(OCCN4CCCC4=O)ccn23)cc(OC(F)F)c1C(=O)NC1CC1` [compound 63, N-cyclopropyl-2-(difluoromethoxy)-6-methoxy-4-[7-[2-(2-oxopyrrolidin-1-yl)ethoxy]imidazo[1,2-a]pyridin-3-yl]benzamide], the IC50 against SIK1, on SIK2 and against SIK3 was 0.01 to 10 nM throughout.

Turning to `COc1cc(-c2cnc3cc(OCC4(F)CNC4)ccn23)cc(OC(F)F)c1C(=O)NC1CC1` [compound 207, N-cyclopropyl-2-(difluoromethoxy)-4-[7-[(3-fluoroazetidin-3-yl)methoxy]imidazo[1,2-a]pyridin-3-yl]-6-methoxy-benzamide], the IC50 against SIK1 fell in the range of 10 to 100 nM; at SIK2 it was 0.01 to 10 nM; against SIK3, 0.01 to 10 nM.

For `COc1cc(-c2cnc3cc(OCC4CCN4C(=O)OC(C)(C)C)ccn23)cc(OC(F)F)c1C(=O)NC1CC1` (stereo not drawn) [compound 87, tert-butyl 2-[[3-[4-(cyclopropylcarbamoyl)-3-(difluoromethoxy)-5-methoxy-phenyl]imidazo[1,2-a]pyridin-7-yl]oxymethyl]azetidine-1-carboxylate], the IC50 on SIK1 was in the range of 10 to 100 nM; against SIK2, 0.01 to 10 nM; against SIK3 it was 0.01 to 10 nM.

On to `COc1cc(-c2cnc3cc(OCCCN4CCCC(C#N)C4)ccn23)cc(OC(F)F)c1C(=O)NC1CC1` (stereo not drawn) [compound 346, 4-[7-[3-(3-cyano-1-piperidyl)propoxy]imidazo [1,2-a]pyridin-3-yl]-N-cyclopropyl-2-(difluoromethoxy)-6-methoxy-benzamide], for which the 50% inhibitory concentration (IC50) lay within 10 to 100 nM at SIK1, 0.01 to 10 nM against SIK2 and 0.01 to 10 nM against SIK3.

Regarding `COc1cc(-c2cnc3cc(OCCCN4CCCCC4)ccn23)cc(OC(F)F)c1C(=O)N1CC(O)(CC#N)C1` [compound 355, 2-[1-[2-(difluoromethoxy)-6-methoxy-4-[7-[3-(1-piperidyl)propoxy]imidazo[1,2-a]pyridin-3-yl]benzoyl]-3-hydroxy-azetidin-3-yl]acetonitrile], the figures for the IC50 on SIK1, against SIK2 and on SIK3 were 100 to 500 nM, 10 to 100 nM and 100 to 500 nM, respectively.

`COc1cc(-c2cnc3cc(OC[C@H]4CCCN(C5COC5)C4)ccn23)cc(OC(F)F)c1C(=O)NC1CC1` [compound 318, N-cyclopropyl-2-(difluoromethoxy)-6-methoxy-4-[7-[[(3S)-1-(oxetan-3-yl)-3-piperidyl]methoxy]imidazo[1,2-a]pyridin-3-yl]benzamide]: the IC50 against SIK1, against SIK2 and on SIK3 was 0.01 to 10 nM in each case.

Consider `COc1cc(-c2cnc3cc(OCc4ncco4)ccn23)cc(OC(F)F)c1C(=O)NC1CC1` [compound 32, N-cyclopropyl-2-(difluoromethoxy)-6-methoxy-4-[7-(oxazol-2-ylmethoxy)imidazo[1,2-a]pyridin-3-yl]benzamide], for which the figures for the concentration for half-maximal inhibition (IC50) against SIK1, against SIK2 and at SIK3 were 10 to 100 nM, 0.01 to 10 nM and 0.01 to 10 nM, respectively.
